Measured values reported in patent US20040176431A1, “Antiproliferative 2-(sulfo-phenyl)-aminothiazole derivatives and pharmaceutical compositions, and methods for their use” (Pfizer, Inc., priority 2003, published 2004).

Biological target: T1, CDK4/cyclin D3 (Homo sapiens, UniProt P11802)
T1 construct: made in house; host or cells: insect cells (baculovirus co-infection)
Assay: Inhibition of CDK4/Cyclin D retinoblastoma kinase activity
Assay type: biochemical
Settings: for inhibition at 0.1 µM: test compound at 0.1 μM, read-out: % Inhib CDK4/D @ 0.1 μM; for inhibition at 1 µM: test compound at 1 μM (head line shifted: 'mM' printed beside 'Structure'), read-out: % Inhib CDK4/D @ 1 μM; for inhibition at 0.03 µM: test compound at 0.03 (unit cell empty, head line shifted; μM), read-out: % Inhib CDK4/D @ 0.03
Method: Cyclin-dependent kinase activity was measured by quantifying the enzyme-catalyzed, time-dependent incorporation of radioactive phosphate from [^32P]ATP or [^33P]ATP into a protein substrate. Unless noted otherwise, assays were performed in 96-well plates in a total volume of 50 μL, in the presence of 10 mM HEPES (N-[2-hydroxyethyl]piperazine-N′-[2-ethanesulfonic acid]) (pH 7.4), 10 mM MgCl2, 25 μM adenosine triphosphate (ATP), 1 mg/mL ovalbumin, 5 μg/mL leupeptin, 1 mM dithiothreitol, 10 mM β-glycerophosphate, 0.1 mM sodium vanadate, 1 mM sodium fluoride, 2.5 mM ethylene glycol-bis(β-aminoethyl ether)-N,N,N′N′-tetraacetic acid (EGTA), 2% (v/v) dimethylsulfoxide, and 0.03-0.4 μCi [^32/33P]ATP per reaction. Reactions were initiated with enzyme, incubated at 30° C., and terminated after 20 minutes by the addition of ethylenediaminetetraacetic acid (EDTA) to 250 mM. The phosphorylated substrate was then captured on a nitrocellulose or phosphocellulose membrane using a 96-well filtration manifold, and unincorporated radioactivity was removed by repeated washing with 0.85% phosphoric acid. Radioactivity was quantified by exposing the dried membranes to a phosphorimager.
Inhibition was measured relative to control wells that contained all reaction components including 2% (v/v) DMSO but no compound, after subtraction of background radioactivity measured in the absence of enzyme. Apparent Ki values of discrete compounds were measured by assaying enzyme activity in the presence of different inhibitor compound concentrations and subtracting the background radioactivity measured in the absence of enzyme. The kinetic parameters (kcat, Km for ATP) were measured for each enzyme under the usual assay conditions by determining the dependence of initial rates on ATP concentration. Inhibition data were fit to an equation for competitive inhibition using Kaleidagraph (Synergy Software), or were fit to an equation for competitive tight-binding inhibition using the software KineTic (BioKin, Ltd.).
A complex of human CDK4 and genetically truncated (1-264) cyclin D3 was purified using traditional biochemical chromatographic techniques from insect cells that had been co-infected with the corresponding baculovirus expression vectors (see e.g., Meijer and Kim, “Chemical Inhibitors of Cyclin-Dependent Kinases,” Methods in Enzymol., 283, 113-128 (1997)). The enzyme complex (5 nM) was assayed with 0.3-0.5 μg of purified recombinant retinoblastoma protein fragment (Rb) as a substrate. The engineered Rb fragment (residues 386-928 of the native retinoblastoma protein; 62.3 kDa) contains the majority of the phosphorylation sites found in the native 106-kDa protein, as well as a tag of six histidine residues for ease of purification. Phosphorylated Rb substrate was captured by microfiltration on a nitrocellulose membrane and quantified using a phosphorimager as described above. For measurement of tight-binding inhibitors, the assay duration was extended to 60 minutes, during which the time-dependence of product formation was linear and initial rate conditions were met.

T1 sequence (P11802 whole entry): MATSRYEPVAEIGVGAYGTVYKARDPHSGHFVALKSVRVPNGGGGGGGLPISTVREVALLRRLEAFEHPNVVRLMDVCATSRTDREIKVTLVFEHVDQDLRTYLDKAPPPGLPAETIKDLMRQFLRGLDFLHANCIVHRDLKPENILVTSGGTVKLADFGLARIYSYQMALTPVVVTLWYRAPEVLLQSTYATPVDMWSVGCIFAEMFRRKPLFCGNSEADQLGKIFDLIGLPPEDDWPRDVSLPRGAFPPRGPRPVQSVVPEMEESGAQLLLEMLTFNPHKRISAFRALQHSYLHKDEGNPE
T1 sequence (P30281 1-264 partner limits assumed): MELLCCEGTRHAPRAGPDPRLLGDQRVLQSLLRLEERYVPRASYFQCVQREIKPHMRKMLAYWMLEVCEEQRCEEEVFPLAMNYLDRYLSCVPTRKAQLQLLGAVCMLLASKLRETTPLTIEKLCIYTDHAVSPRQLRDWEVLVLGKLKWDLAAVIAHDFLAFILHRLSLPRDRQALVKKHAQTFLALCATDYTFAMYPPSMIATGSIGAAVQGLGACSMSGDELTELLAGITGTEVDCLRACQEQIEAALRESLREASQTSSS

Structure (SMILES) | inhibition at 0.1 µM [%] | inhibition at 1 µM [%] | inhibition at 0.03 µM [%]
COC(=O)/C=C/CSc1cccc(Nc2nc(N)c(C(=O)c3c(Cl)cccc3Cl)s2)c1 [DD(44)] | 31 | 46 | 23
Nc1nc(Nc2cccc(SCCCO)c2)sc1C(=O)c1c(Cl)cccc1Cl [DD(45)] | 54 | 79.6 | 32
C=CCCSc1cccc(Nc2nc(N)c(C(=O)c3c(Cl)cccc3Cl)s2)c1 [DD(46)] | 39 | 50.7 | 18
Nc1nc(Nc2cccc(SCCN3CCCC3)c2)sc1C(=O)c1c(Cl)cccc1Cl [DD(47)] | 7.3 | 62.9 | 20
Nc1nc(Nc2cccc(SCc3ncon3)c2)sc1C(=O)c1c(Cl)cccc1Cl [DD(48)] | 36 | 52.2 | 26
Nc1nc(Nc2cccc(SCC3CNC(=O)O3)c2)sc1C(=O)c1c(Cl)cccc1Cl (stereo not drawn) [DD(49)] | 19 | 54.2 | 12
CN(C)CCCSc1cccc(Nc2nc(N)c(C(=O)c3c(Cl)cccc3Cl)s2)c1 [DD(50)] | 10 | 80.3 | 24
Nc1nc(Nc2cccc(SCCN3CCCCC3)c2)sc1C(=O)c1c(Cl)cccc1Cl [DD(51)] | 30 | 75.6 | 4.1
Nc1nc(Nc2cccc(SCC3CO3)c2)sc1C(=O)c1c(Cl)cccc1Cl (stereo not drawn) [DD(52)] | 34 | 74.9 | 15
CC(C)CCSc1cccc(Nc2nc(N)c(C(=O)c3c(Cl)cccc3Cl)s2)c1 [DD(53)] | 14 | 31.5 | 5.6
COCCSc1cccc(Nc2nc(N)c(C(=O)c3c(Cl)cccc3Cl)s2)c1 [DD(54)] | 34 | 75.2 | 20
Nc1nc(Nc2cccc(SCC(=O)Nc3ccccc3)c2)sc1C(=O)c1c(Cl)cccc1Cl [DD(55)] | 24 | 63.4 | 17
Nc1nc(Nc2cccc(SCC3CC3)c2)sc1C(=O)c1c(Cl)cccc1Cl [DD(56)] | 17 | 55.4 | 2.9
COc1cccc(CSc2cccc(Nc3nc(N)c(C(=O)c4c(Cl)cccc4Cl)s3)c2)c1 [DD(57)] | -9 | 24.6 | -14
Nc1nc(Nc2cccc(SCC3CCCO3)c2)sc1C(=O)c1c(Cl)cccc1Cl (stereo not drawn) [DD(58)] | 23 | 72.7 | 11
CN1CCCC1CCSc1cccc(Nc2nc(N)c(C(=O)c3c(Cl)cccc3Cl)s2)c1 (stereo not drawn) [DD(59)] | 37 | 57.4 | 20
CC1(CSc2cccc(Nc3nc(N)c(C(=O)c4c(Cl)cccc4Cl)s3)c2)CO1 (stereo not drawn) [DD(60)] | 39 | 80.1 | 22
NC(=O)CSc1cccc(Nc2nc(N)c(C(=O)c3c(Cl)cccc3Cl)s2)c1 [DD(61)] | 57 | 81.5 | 20
CCOC(=O)CCSc1cccc(Nc2nc(N)c(C(=O)c3c(Cl)cccc3Cl)s2)c1 [DD(62)] | 27 | 46.4 | 6.4
CC(C)OC(=O)CSc1cccc(Nc2nc(N)c(C(=O)c3c(Cl)cccc3Cl)s2)c1 [DD(63)] | 29 | 46.6 | -3.8
CC(C)=CCSc1cccc(Nc2nc(N)c(C(=O)c3c(Cl)cccc3Cl)s2)c1 [DD(64)] | 27 | 22.1 | -11
CCCSc1cccc(Nc2nc(N)c(C(=O)c3c(Cl)cccc3Cl)s2)c1 [DD(65)] | 7 | 51.1 | 6.5
COC(=O)CSc1cccc(Nc2nc(N)c(C(=O)c3c(Cl)cccc3Cl)s2)c1 [DD(66)] | 23 | 77.1 | 18
CN1CCCC(CSc2cccc(Nc3nc(N)c(C(=O)c4c(Cl)cccc4Cl)s3)c2)C1 (stereo not drawn) [DD(67)] | 14 | 49.1 | 4.3
NC(=O)CCSc1cccc(Nc2nc(N)c(C(=O)c3c(Cl)cccc3Cl)s2)c1 [DD(68)] | 52 | 77.4 | 25
Nc1nc(Nc2cccc(SCCO)c2)sc1C(=O)c1c(Cl)cccc1Cl [DD(69)] | 41 | 78.4 | 16

More lines, now with the values ahead:

inhibition at 0.1 µM [%] | inhibition at 1 µM [%] | inhibition at 0.03 µM [%] | Structure (SMILES)
16 | 5.3 | 93 | CC(C)CCCSc1cccc(Nc2nc(N)c(C(=O)c3c(Cl)cccc3Cl)s2)c1 [DD(70)]
6.9 | 36 | 77 | CC(C)CCOC(=O)CSc1cccc(Nc2nc(N)c(C(=O)c3c(Cl)cccc3Cl)s2)c1 [DD(71)]
25 | 69 | -1.1 | CN(C)CCSc1cccc(Nc2nc(N)c(C(=O)c3c(Cl)cccc3Cl)s2)c1 [DD(72)]
31 | 73.7 | 11 | CCOCCSc1cccc(Nc2nc(N)c(C(=O)c3c(Cl)cccc3Cl)s2)c1 [DD(73)]
59 | 85.7 | 28 | Nc1nc(Nc2cccc(SCC(O)CO)c2)sc1C(=O)c1c(Cl)cccc1Cl (stereo not drawn) [DD(74)]
29 | 66.5 | 18 | Nc1nc(Nc2cccc(SCc3ccncc3)c2)sc1C(=O)c1c(Cl)cccc1Cl [DD(75)]
9.6 | 29.5 | 19 | CCC(CC)CSc1cccc(Nc2nc(N)c(C(=O)c3c(Cl)cccc3Cl)s2)c1 [DD(76)]
30 | 71.9 | 23 | CC(=O)OCCSc1cccc(Nc2nc(N)c(C(=O)c3c(Cl)cccc3Cl)s2)c1 [DD(77)]
22 | 36.2 | 13 | CC(C)OC(=O)CCSc1cccc(Nc2nc(N)c(C(=O)c3c(Cl)cccc3Cl)s2)c1 [DD(78)]
4.3 | 62.3 | 9.1 | Nc1nc(Nc2cccc(SCCN3CCOCC3)c2)sc1C(=O)c1c(Cl)cccc1Cl [DD(79)]
1.5 | 56 | 1.2 | CC(C)(CO)CSc1cccc(Nc2nc(N)c(C(=O)c3c(Cl)cccc3Cl)s2)c1 [DD(80)]
21 | 57.4 | -21 | CCN(CC)C(=O)C[S+]([O-])c1ccc(Nc2nc(N)c(C(=O)c3c(Cl)cccc3Cl)s2)cc1 (stereo not drawn) [DD(81)]
-4 | 72.3 | -3.3 | Cc1noc(C)c1C[S+]([O-])c1ccc(Nc2nc(N)c(C(=O)c3c(Cl)cccc3Cl)s2)cc1 (stereo not drawn) [DD(82)]
31 | 43 | -17 | CC(CN(C)C)C[S+]([O-])c1ccc(Nc2nc(N)c(C(=O)c3c(Cl)cccc3Cl)s2)cc1 (stereo not drawn) [DD(83)]
